Here are results for six compounds from patent publication US4029780A, “3-Piperazinyl 1,2,4-benzothiadiazine 1,1-dioxide derivatives their compositions and method of use” (Dainippon Pharmaceutical Co., Ltd., priority 1974, dated 1977).

The subject of series [1] is Spontaneously hypertensive male rats. Description: Antihypertensive activity in spontaneously hypertensive rats (oral, 10 successive days). It counts as in vivo, rat. To be noted: for Blood pressure / Fall in blood pressure: 10 mg/kg/day p.o. The protocol: Spontaneously hypertensive male rats [SHR, Jap. Circ. J. 27, 282-93 (1963)] being 18-23 weeks of age and having systolic blood pressure levels of 170-190 mmHg were used. The test compounds were each suspended in a 0.5% aqueous tragacanth solution and administered orally in a dose of 10 mg/kg/day by stomach tube to SHR once a day for 10 successive days. The blood pressure of conscious SHR was measured prior to dosing and 5 hours after administration. It was also measured once daily over a period of 7 days after the end of the treatment period. The measurement of the blood pressure was made by a plethysmographtail method [Jap. Circ. J. 27, 282-93 (1963)].

The test system of series [2] is Male Wistar rats. Nature of the series: Effect on urine volume and electrolyte excretion. It is filed as in vivo, rat. The protocol:
Male Wistar rats weighing 220 to 260 g were used. Each test compound was suspended in a solution of tragacanth dissolved in a concentration of 0.5% in a 0.9% saline solution so that the volume of the resulting suspension to be administered would be always 25 ml/Kg. The test compounds were administered orally by the stomach tube to the animals at the prescribed doses. The animals were then placed in a metabolic cage and the urine was collected over a period of 5 hours. The total amount of sodium, potassium and chloride excreted was determined by Auto-Analyzer, made by Technicon Instruments Corporation.

For series [3], the system named is Male Wistar rats. Nature of the series: Effect on blood glucose (a), oral. The settings on record: 300 mg/kg p.o.
Experimental: (a) Male Wistar rats weighing 190-210 g were used. Each test compound was suspended in a concentration of 150 mg/ml in a 0.5% aqueous tragacanth solution and orally administered at a dose of 300 mg/kg by the stomach tube.
Series [4] concerns Male Wistar rats. Nature of the series: Effect on blood glucose (b), intraperitoneal. The settings on record: 300 mg/kg i.p.
Experimental: (b) Male Wistar rats weighing 260-285 g were used. […] 4 ml/kg of the above solution of each test compound was intraperitoneally administered to each animal. The blood samples were taken prior to dosing and 1, 3 and 6 hours after the administration and the plasma glucose levels were determined in a similar manner to that described in (a).
For series [5] the following is noted: literature, cited from earlier work.
For series [6] the following is noted: literature; cited from earlier work.
The mark [7] stands for this setting: day 0, 5 hours after administration.
Setting [8] is: day 2, 5 hours after administration.
The mark [9] stands for this setting: day 4, 5 hours after administration.
Where [10] appears, read: day 6, 5 hours after administration.
Where [11] appears, read: day 8, 5 hours after administration.
[12] abbreviates: day 10, 24 hours after the final treatment.
The mark [13] stands for this setting: day 14, 120 hours after the final treatment.
Where [14] appears, read: 100 mg/kg p.o., urinary excretion over 5 hours.

For `NS(=O)(=O)c1cc2c(cc1Cl)NCNS2(=O)=O` [Compound 4, Hydrochlorothiazide], the Blood pressure in series [1] (setting [7]) turned out to be 168 mm Hg; in series [1] (day 0, prior to dosing (0)), 172 mm Hg; in series [1] (setting [8]) it was 152 mm Hg; in series [1] (day 2, prior to dosing (0)) it was 163 mm Hg; in series [1] (setting [9]), 150 mm Hg; in series [1] (day 4, prior to dosing (0)), 158 mm Hg. In addition, the Blood pressure in series [1] (setting [10]) is 138 mm Hg; in series [1] (day 6, prior to dosing (0)), 151 mm Hg; in series [1] (setting [11]), 140 mm Hg; in series [1] (day 8, prior to dosing (0)), 152 mm Hg; in series [1] (setting [12]), 153 mm Hg; in series [1] (setting [13]), 165 mm Hg. Moreover, the “Change in Na+/K+” value in series [2] (1 mg/kg p.o.) is listed as “marked increase”. Besides, the Cl- in series [2] (1.0 mg/kg p.o., urinary excretion over 5 hours) was determined as 1.38 mEq. In addition, the Blood glucose in series [3] (0 hr (prior to dosing)) came to 104 mg/dL; in series [3] (1 hr), 114 mg/dL; in series [3] (3 hr), 111 mg/dL; in series [3] (6 hr), 112 mg/dL; in series [3] (10 hr), 113 mg/dL; in series [4] (0 hr (prior to dosing)), 100 mg/dL. For the same compound, the Blood glucose in series [4] (1 hr) turned out to be 257 mg/dL; in series [4] (3 hr), 220 mg/dL; in series [4] (6 hr), 144 mg/dL.
In the case of `COc1cc2c(cc1OC)S(=O)(=O)NC(N1CCN(C)CC1)=N2` [Compound 1, 6,7-Dimethoxy-3-(4-methyl-1-piperazinyl)-2H-1,2,4-benzothiadiazine 1,1-dioxide], the “Fall in blood pressure” value in series [1] is recorded as “did not cause any significant fall in blood pressure”. Besides, the Blood pressure in series [1] (setting [7]) is given as 188 mm Hg; in series [1] (day 0, prior to dosing (0)), 189 mm Hg; in series [1] (setting [8]), 186 mm Hg; in series [1] (day 2, prior to dosing (0)) it was 187 mm Hg; in series [1] (setting [9]) it was 184 mm Hg; in series [1] (day 4, prior to dosing (0)), 185 mm Hg. The Blood pressure was determined as 184 mm Hg in series [1] (setting [10]); 187 mm Hg in series [1] (day 6, prior to dosing (0)); 187 mm Hg in series [1] (setting [11]); 189 mm Hg in series [1] (day 8, prior to dosing (0)); 187 mm Hg in series [1] (setting [12]); 188 mm Hg in series [1] (setting [13]). Also, the Antihypertensive activity result in series [5] was “no antihypertensive activity”.
Take `O=S1(=O)NC(N2CCOCC2)=Nc2cc(C(F)(F)F)ccc21` [3-morpholino-6-trifluoromethyl-2H-1,2,4-benzothiadiazine 1,1-dioxide]: the Antihypertensive activity result in series [5] is listed as “no antihypertensive activity”.
As to `CN1CCN(C2=Nc3ccccc3S(=O)(=O)N2)CC1` [Compound B, 3-(4-methyl-1-piperazinyl)-2H-1,2,4-benzothiadiazine 1,1-dioxide], the Blood pressure in series [1] (setting [7]) is listed as 167 mm Hg; in series [1] (day 0, prior to dosing (0)), 169 mm Hg; in series [1] (setting [8]) it was 161 mm Hg; in series [1] (day 2, prior to dosing (0)), 167 mm Hg; in series [1] (setting [9]) it was 154 mm Hg; in series [1] (day 4, prior to dosing (0)), 159 mm Hg. In addition, the Blood pressure in series [1] (setting [10]) turned out to be 144 mm Hg; in series [1] (day 6, prior to dosing (0)), 160 mm Hg; in series [1] (setting [11]) it was 136 mm Hg; in series [1] (day 8, prior to dosing (0)), 149 mm Hg; in series [1] (setting [12]), 146 mm Hg; in series [1] (setting [13]), 166 mm Hg. In addition, the “Change in electrolyte excretion” value in series [2] (100 mg/kg p.o.) is listed as “no significant change”. The “Change in urine volume” value in series [2] (100 mg/kg p.o.) is listed as “no significant change”. The same compound had a Urine volume in series [2] (100 mg/kg p.o., 5 hours) of 3.06 mL. This compound also came in with a Cl- in series [2] (setting [14]) of 0.89 mEq. Moreover, in series [2] (setting [14]), the “K+” value is listed as 0.48 mEq. In addition, in series [2] (setting [14]), the “Na+” value came out at 0.64 mEq. For the same compound, in series [2] (setting [14]), the “Na+/K+” value is 1.34. Besides, the Blood glucose in series [3] (0 hr (prior to dosing)) was found to be 106 mg/dL; in series [3] (1 hr) it was 107 mg/dL; in series [3] (3 hr), 109 mg/dL; in series [3] (6 hr), 104 mg/dL; in series [3] (10 hr), 110 mg/dL; in series [4] (0 hr (prior to dosing)) it was 100 mg/dL. For the same compound, the Blood glucose in series [4] (1 hr) is 111 mg/dL; in series [4] (3 hr), 115 mg/dL; in series [4] (6 hr), 125 mg/dL. In addition, the “Effect on blood glucose level” value in series [3] (rats) and in series [4] (rats) was “substantially no effect” throughout.
Consider `NC1=Nc2cc(C(F)(F)F)ccc2S(=O)(=O)N1` [6-trifluoromethyl-3-amino-2H-1,2,4-benzothiadiazine 1,1-dioxide], for which, in series [5], the Antihypertensive activity entry is listed as “substantially the same degree of antihypertensive activity as diazoxide”. Besides, the Antidiuretic activity result in series [6] was “antidiuretic activity similar to that of diazoxide”.
In the case of `O=S1(=O)NC(N2CCCCC2)=Nc2ccccc21` [Compound 2, 3-Piperidino-2H-1,2,4-benzothiadiazine 1,1-dioxide], the “Fall in blood pressure” value in series [1] is on record as “did not cause any significant fall in blood pressure”. For the same compound, the Blood pressure in series [1] (setting [7]) amounted to 180 mm Hg; in series [1] (day 0, prior to dosing (0)), 187 mm Hg; in series [1] (setting [8]), 181 mm Hg; in series [1] (day 2, prior to dosing (0)), 186 mm Hg; in series [1] (setting [9]) it was 183 mm Hg; in series [1] (day 4, prior to dosing (0)) it was 182 mm Hg. For the same compound, the Blood pressure in series [1] (setting [10]) turned out to be 186 mm Hg; in series [1] (day 6, prior to dosing (0)) it was 186 mm Hg; in series [1] (setting [11]) it was 183 mm Hg; in series [1] (day 8, prior to dosing (0)), 186 mm Hg; in series [1] (setting [12]) it was 184 mm Hg; in series [1] (setting [13]) it was 182 mm Hg. Further, the “Antihypertensive activity in oral administration” value in series [1] (oral) is recorded as “does not show antihypertensive activity”. The “Antihypertensive activity in intravenous administration” value in series [5] (intravenous) was “slight antihypertensive activity”.
